Reference: patent US9783509B2, “Six-membered C-N-linked aryl sulfide derivatives and aryl sulfoxide derivatives as pest conrol agents” (BAYER CROPSCIENCE AKTIENGESELLSCHAFT, priority 2013, dated 2017)
Where two headings read alike, the source gives them in different places.

Key:
[1] = log P by reversed-phase HPLC analogously to OECD Guideline 117; assay type: physicochemical; settings: for LogP[a] / chromatographic logP: [a] acidic range; for LogP[b]: [b] neutral range, pH 7.8, ammonium hydrogencarbonate/acetonitrile; for chromatographic logP: reversed-phase C18 HPLC column
Summary of the method: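 Retention on reversed-phase C18 HPLC (LC-MS), acidic runs at pH 2.7 with formic acid or trifluoroacetic acid/acetonitrile gradients, neutral runs at pH 7.8 with 0.001 molar ammonium hydrogencarbonate/acetonitrile. log P obtained by linear interpolation of retention times against unbranched alkan-2-ones (C3–C16) of known log P.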

[2] = system: greenhouse red spider mite (Tetranychus urticae); test: Tetranychus urticae spray test, OP-resistant (bean leaf discs); assay type: in vivo; settings: after 6 days
Summary of the method: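 Compound dissolved in acetone/DMF and diluted in water with 1000 ppm alkylaryl polyglycol ether emulsifier, then sprayed on bean leaf discs infested with all stages of OP-resistant T. urticae. Mortality in % scored after 6 days (100% = all mites killed).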

[3] = system: larvae of the mustard beetle (Phaedon cochleariae); test: Phaedon cochleariae spray test; assay type: in vivo; settings: application rate 500 g/ha, after 7 days
Procedure: Phaedon cochleariae—Spray Test
Solvent: 78.0 parts by weight of acetone • • 1.5 parts by weight of dimethylformamide
(§1) Emulsifier: alkylaryl polyglycol ether
(§2) To produce an appropriate active ingredient formulation, 1 part by weight of active ingredient is dissolved using the specified parts by weight of solvent and made up with water containing an emulsifier concentration of 1000 ppm until the desired concentration is attained. To produce further test concentrations, the preparation is diluted with emulsifier-containing water.
Discs of Chinese cabbage leaves (Brassica pekinensis) are sprayed with an active ingredient formulation of the desired concentration and, after drying, populated with larvae of the mustard beetle (Phaedon cochleariae).
After 7 days, the efficacy in % is determined. 100% means that all the beetle larvae have been killed; 0% means that no beetle larvae have been killed.

[4] = system: southern root-knot nematode (Meloidogyne incognita); test: Meloidogyne incognita test (sand, lettuce, acetone solvent, 14 days); assay type: in vivo; settings: application rate 20 ppm, after 14 days
Procedure: (§3) Meloidogyne incognita Test
Solvent: 125.0 parts by weight of acetone
To produce an appropriate active ingredient formulation, 1 part by weight of active ingredient is mixed with the stated amount of solvent and the concentrate is diluted with water to the desired concentration.
Vessels are filled with sand, active ingredient solution, an egg/larvae suspension of the southern root-knot nematode (Meloidogyne incognita) and lettuce seeds. The lettuce seeds germinate and the plants develop. The galls develop on the roots
After 14 days, the nematicidal efficacy in % is determined by the formation of galls. 100% means that no galls were found; 0% means that the number of galls on the treated plants corresponds to the untreated control.

[5] = system: greenhouse red spider mite (Tetranychus urticae); test: Tetranychus urticae spray test, OP-resistant (bean plants); assay type: in vivo; settings: application rate 20 ppm, after 7 days
Procedure: Tetranychus urticae—Spray Test, OP-Resistant
(§4) Solvent: 7 parts by weight of dimethylformamide
as §1
as §2, with “water. If the addition of ammonium salts or/and penetrants is required, these are each added in a concentration of 1000 ppm to the formulation solution.” for “water.”
Bean plants (Phaseolus vulgaris) heavily infested by all stages of the greenhouse red spider mite (Tetranychus urticae) are treated by spraying with the active ingredient formulation in the desired concentration.
After 7 days, the efficacy in % is determined. 100% means that all the spider mites have been killed; 0% means that none of the spider mites have been killed.

[6] = system: green peach aphid (Myzus persicae); test: Myzus persicae spray test (Chinese cabbage leaf discs); assay type: in vivo; settings: application rate 500 g/ha, after 6 days
Procedure: (§5) Myzus persicae—Spray Test
Solvent: 78 parts by weight of acetone • • 1.5 parts by weight of dimethylformamide
as §1, §2
Discs of Chinese cabbage leaves (Brassica pekinensis) infested by all stages of the green peach aphid (Myzus persicae) are sprayed with an active ingredient formulation of the desired concentration.
After 6 days, the efficacy in % is determined 100% means that all the aphids have been killed; 0% means that none of the aphids have been killed.

[7] = system: southern root-knot nematode (Meloidogyne incognita); test: Meloidogyne incognita test (soil drench, lettuce, 21 days); assay type: in vivo; settings: application rate 8 ppm, after 21 days
Procedure: as §3, §4
Emulsifier: 2.5 parts by weight of alkylaryl polyglycol ether
To produce an appropriate active ingredient formulation, 1 part by weight of active ingredient is mixed with the stated amounts of solvent and emulsifier, and the concentrate is diluted with water to the desired concentration, it being necessary to include the volume of soil which is drenched in the calculation. It should be noted that a concentration of 20 ppm of emulsifier in the soil is not exceeded. To produce further test concentrations, water is used for dilution.
Pots filled with soil (loamy sand) are watered with the active ingredient solution. An egg/larvae suspension of the southern root-knot nematode (Meloidogyne incognita) is added, lettuce seeds are scattered over the surface of the soil, and they are covered over with quartz sand. The lettuce seeds germinate and the plants develop. The galls develop on the roots
After 21 days, the nematicidal efficacy in % is determined by the formation of galls. 100% means that no galls have been found; 0% means that the number of galls on the treated plants corresponds to the untreated control.

[8] = system: engorged adult female cattle ticks (Boophilus microplus); test: Boophilus microplus injection test; assay type: in vivo; settings: application rate 20 μg/animal, assessed after 7 days
Procedure: Boophilus microplus—Injection Test
Solvent: dimethyl sulphoxide
To produce an appropriate active ingredient formulation, 10 mg of active ingredient are mixed with 0.5 ml of solvent and the concentrate is diluted with solvent to the desired concentration.
1 μl of the active ingredient solution is injected into the abdomen of 5 engorged adult female cattle ticks (Boophilus microplus). The animals are transferred into dishes and kept in a climate-controlled room.
The efficacy is assessed after 7 days by laying of fertile eggs. Eggs which are not visibly fertile are stored in a climate-controlled cabinet until the larvae hatch after about 42 days. An efficacy of 100% means that none of the ticks has laid any fertile eggs; 0% means that all the eggs are fertile.

[9] = system: adult cat fleas (Ctenocephalides felis); test: Ctenocephalides felis in vitro contact test with adult cat fleas; assay type: in vivo; settings: application rate 5 μg/cm^2 (=500 g/ha), after 48 h
Procedure: Ctenocephalides felis—In Vitro Contact Tests with Adult Cat Fleas
For the coating of the test tubes, 9 mg of active ingredient are first dissolved in 1 ml of acetone p.a. and then diluted to the desired concentration with acetone p.a. 250 μl of the solution are distributed homogeneously on the inner walls and base of a 25 ml test tube by turning and rocking on an orbital shaker (rocking rotation at 30 rpm for 2 h). With 900 ppm active ingredient solution and internal surface 44.7 cm^2, given homogeneous distribution, an area-based dose of 5 μg/cm^2 is achieved.
After the solvent has been evaporated off, the tubes are populated with 5-10 adult cat fleas (Ctenocephalides felis), sealed with a perforated plastic lid and incubated in a horizontal position at room temperature and ambient humidity. After 48 h, the efficacy is determined. To this end, the test tubes are stood upright and the fleas are knocked to the base of the tube. Fleas which remain motionless at the base or move in an uncoordinated manner are considered to be dead or moribund.
100% efficacy means that all the fleas were dead or moribund. 0% efficacy means that no fleas were harmed.

[10] = system: green peach aphid (Myzus persicae); test: Myzus persicae spray test (bell pepper plants); assay type: in vivo; settings: application rate 20 ppm, after 6 days
Procedure: as §5, §4, §1
as §2, with “water. If the addition of ammonium salts or/and penetrants is required, these are each added in a concentration of 1000 ppm to the formulation solution.” for “water.”
Bell pepper plants (Capsicum annuum) heavily infested by the green peach aphid (Myzus persicae) are treated by spraying with the active ingredient formulation in the desired concentration.
After 6 days, the kill in % is determined. 100% means that all the aphids have been killed; 0% means that no aphids have been killed.

[11] = pH 2.7, formic acid (or trifluoroacetic acid)/acetonitrile

Row | Structure (SMILES) | LogP[a] [1, 11] | LogP[b] [1] | efficacy (spider mites killed) ([2]; application rate 500 g/ha) | nematicidal efficacy (formation of galls) [4] | efficacy (spider mites killed) [5] | other results
1 | Cc1cc(F)c(-n2ncc(=O)n(CC3CC3)c2=O)cc1[S+]([O-])CC(F)(F)F (racemic) [compound 27] | 2.72 | 2.65 | 100% | 100% | – | efficacy (beetle larvae killed) [3]: 100%
2 | Cc1cc(F)c(-n2ncc(=O)n(CC#N)c2=O)cc1[S+]([O-])CC(F)(F)F (racemic) [compound 44] | 2.02 | 1.96 | – | – | 95% | efficacy (aphids killed) [6]: 90%
3 | Cc1cc(F)c(-n2ncc(=O)n(Cc3ccccc3)c2=O)cc1[S+]([O-])CC(F)(F)F (racemic) [compound 45] | 3.00 | 2.9 | – | – | 90% | –
4 | Cc1cc(F)c(-n2ncc(=O)n(Cc3ccc[n+]([O-])c3)c2=O)cc1[S+]([O-])CC(F)(F)F (racemic) [compound 48] | 1.51 | 1.45 | – | – | – | efficacy (aphids killed) [6]: 90%
5 | Cc1cc(F)c(-n2ncc(=O)n(Cc3cccnc3)c2=O)cc1[S+]([O-])CC(F)(F)F (racemic) [compound 49] | 1.47 | 2.00 | – | – | – | efficacy (aphids killed) [6]: 90%
6 | Cc1cc(F)c(-n2ccc(=O)n(CC(F)(F)F)c2=O)cc1[S+]([O-])CC(F)(F)F (racemic) [compound 60] | 2.31 | 2.34 | – | 100% | 100% | efficacy (beetle larvae killed) [3]: 100%
7 | Cc1cc(C)c([S+]([O-])CC(F)(F)F)cc1-n1ncc(=O)n(CC(F)(F)F)c1=O (single isomer, unassigned) [compound 47] | 2.72 | 2.66 | – | – | 100% | –
8 | Cc1cc(F)c(-n2ncc(=O)n(CC(F)(F)F)c2=O)cc1[S+]([O-])CC(F)(F)F (single isomer, unassigned) [compound 50] | 2.62 | 2.57 | – | – | 100% | nematicidal efficacy (formation of galls) [7]: 99%
9 | Cc1cc(F)c(-n2ncc(=O)n(C)c2=O)cc1[S+]([O-])CC(F)(F)F (single isomer, unassigned; (+)) [Ex. No. 29, (+)-2-[2-fluoro-4-methyl-5-(2,2,2-trifluoroethylsulphinyl)phenyl]-4-methyl-1,2,4-triazine-3,5-dione] | 1.95 | 1.9 | – | – | 100% | nematicidal efficacy (formation of galls) [7]: 100%; efficacy (no fertile eggs laid) [8]: 100%
10 | Cc1cc(F)c(-n2ncc(=O)n(C)c2=O)cc1[S+]([O-])CC(F)(F)F (stereo not shown) [Ex. No. 2, 2-{2-Fluoro-4-methyl-5-[(2,2,2-trifluoroethyl)sulphinyl]phenyl}-4-methyl-1,2,4-triazine-3,5(2H,4H)-dione] | – | – | – | – | – | chromatographic logP ([1]; pH 2.7, running text, pH 2.7, read-out: log P[a]): 1.94; chromatographic logP ([1]; pH 2.7, table column, pH 2.7, formic acid (or trifluoroacetic acid)/acetonitrile, read-out: LogP[a]): 1.94; efficacy (fleas dead or moribund) [9]: 100%; pest or weed control at 500 g/ha ([2]; Tetranychus urticae, foliar, 144 h, application rate 500 g/ha, read-out: efficacy (spider mites killed)): 90%; efficacy (no fertile eggs laid) [8]: 100%; pest or weed control at 20 ppm ([4]; Meloidogyne incognita, 336 h, read-out: nematicidal efficacy (formation of galls)): 90%
11 | Cc1cc(F)c(-n2ncc(=O)n(CC(F)(F)F)c2=O)cc1SCC(F)(F)F [compound 10] | 3.65 | – | 90% | 100% | – | efficacy (no fertile eggs laid) [8]: 100%; efficacy (beetle larvae killed) [3]: 83%
12 | Cc1cc(F)c(-n2ncc(=O)n(CC3CC3)c2=O)cc1SCC(F)(F)F [compound 25] | 3.79 | 3.76 | 100% | 100% | – | efficacy (beetle larvae killed) [3]: 100%
13 | Cn1c(=O)cnn(-c2ccc(Cl)c(SCC(F)(F)F)c2)c1=O [compound 31] | 3 | 2.91 | – | – | – | efficacy (kill of aphids) [10]: 97%; efficacy (spider mites killed) ([2]; application rate 100 g/ha): 100%
14 | Cn1c(=O)cnn(-c2ccc(Cl)c(SCC(F)(F)F)c2)c1=O [compound 32] | 2.18 | 2.16 | 100% | – | – | efficacy (aphids killed) [6]: 90%
15 | Cc1cc(F)c(-n2ncc(=O)n(Cc3cccnc3)c2=O)cc1SCC(F)(F)F [compound 43] | 2.36 | 2.87 | 90% | – | – | efficacy (aphids killed) [6]: 90%
16 | C#CCn1c(=O)ccn(-c2cc(SCC(F)(F)F)c(C)cc2F)c1=O [compound 79] | 2.78 | 2.81 | 90% | 100% | – | efficacy (beetle larvae killed) [3]: 100%
17 | COCn1c(=O)ccn(-c2cc(SCC(F)(F)F)c(C)cc2F)c1=O [compound 80] | 2.62 | 2.66 | – | 100% | 100% | –
18 | Cc1cc(F)c(-n2ccc(=O)n(CC(F)F)c2=O)cc1SCC(F)(F)F [compound 82] | 2.99 | 3.06 | – | 100% | 100% | –
